Laboratory results reported in paper PMC5808105, “Sublingual Administration of Sildenafil Oro-dispersible Film: New Profiles of Drug Tolerability and Pharmacokinetics for PDE5 Inhibitors” (Frontiers in Pharmacology, 2018).

Experiments:
[1] = cited from earlier work
[2] = Trans-mucosal permeation test (vertical diffusion system); assay type: in vitro ADME; conditions: HBSS, donor-receiver chambers, 0-40 min; equivalent to 50 mg Sild; result in words
Procedure: Trans-mucosal permeation profile of Sild was evaluated in vitro by using a specific device according to [Delvadia et al. (2012)] appropriately modified. Briefly, the device consisted in a vertical diffusion system featured by donor–receiver chambers separated by a disposable cellulose–acetate membrane (pore 0.45 μm). The donor cell contained 1.5 ml of HBSS, whereas the receiver chamber was part of a closed recirculation circuit of 30 ml including the volumes of tubing and reservoir. Sampling was performed from receiver chamber reservoir at the time intervals of 0, 5, 10, 20, 30, and 40 min and replaced by an equivalent volume of fresh HBSS. The samples were analyzed by HPLC-UV for drug content ([Fejős et al., 2014]). Data were normalized on the highest permeated Sild concentration observed for pure Sild citrate. Tests were performed in triplicate and results were reported as mean value ± standard deviation.

[3] = parameters: method as in Zayed et al., 2012; Sun et al., 2014; conditions: result in words; ref Zayed et al., 2012; Sun et al., 2014; cited from earlier work

Which bioavailability ([1]; ref Center for Drug Evaluation and Research, 2003) does the source give for `CCCc1nc(C)c2c(=O)[nH]c(-c3cc(S(=O)(=O)N4CCN(CC)CC4)ccc3OCC)nn12` [Vardenafil] here?
Its bioavailability is roughly 15%.

For `CCCc1nn(C)c2c(=O)[nH]c(-c3cc(S(=O)(=O)N4CCN(C)CC4)ccc3OCC)nc12.O=C(O)CC(O)(CC(=O)O)C(=O)O` [Sild citrate], which “permeation of Sild through cellulose acetate membrane” value [2] is on record?
Its value is “free and fast diffusion between the two chambers”.

What does the source list for `CCCc1nn(C)c2c(=O)[nH]c(-c3cc(S(=O)(=O)N4CCN(C)CC4)ccc3OCC)nc12` [Sild, Sildenafil]?
time to peak plasma concentration ([1]; after oral administration, ref Gupta et al., 2005): 0.5 to 2 h; oral bioavailability ([1]; ref Gupta et al., 2005): 38–41%; water solubility [3]: low water solubility
